In ChEMBL document CHEMBL5226347, “Discovery of Chromane-6-Sulfonamide Derivative as a Potent, Selective, and Orally Available Novel Retinoic Acid Receptor-Related Orphan Receptor γt Inverse Agonist” (J Med Chem, 2021):
pIC50: −log10 of the molar value. Values after ≈ are worked out from the molar mass of the structure shown.

Key:
[1] = Lipophilicity, log D of the compound at pH 7.4; format: physicochemical; conditions: buffer
[2] = biological target: T1, Nuclear receptor ROR-gamma (Homo sapiens, UniProt P51449); assay: Inhibition of RORgammat in human Jurkat cells assessed as inhibition of RORgammat transcriptional activity incubated for 10 mins by luciferase reporter gene assay; format: cell-based
T1 sequence (P51449 whole entry): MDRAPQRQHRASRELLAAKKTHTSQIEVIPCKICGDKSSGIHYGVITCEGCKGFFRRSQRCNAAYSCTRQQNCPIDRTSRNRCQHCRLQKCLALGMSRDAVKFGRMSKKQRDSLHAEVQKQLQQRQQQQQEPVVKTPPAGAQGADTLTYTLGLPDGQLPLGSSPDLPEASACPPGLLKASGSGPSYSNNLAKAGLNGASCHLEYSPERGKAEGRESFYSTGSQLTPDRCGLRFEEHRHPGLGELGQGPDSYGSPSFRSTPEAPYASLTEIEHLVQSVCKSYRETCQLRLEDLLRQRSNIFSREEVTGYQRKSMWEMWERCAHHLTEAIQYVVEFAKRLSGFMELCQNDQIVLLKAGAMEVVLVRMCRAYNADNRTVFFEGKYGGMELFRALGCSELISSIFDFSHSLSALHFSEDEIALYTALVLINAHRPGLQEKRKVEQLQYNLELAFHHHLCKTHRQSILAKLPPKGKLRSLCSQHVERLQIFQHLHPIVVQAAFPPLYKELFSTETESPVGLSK

[3] = biological target: T1, Nuclear receptor ROR-gamma; assay: Displacement of BODIPY from APC-labelled human RORgammat LBD incubated for 15 mins by LANCE detection analysis
[4] = Metabolic stability in human liver microsomes assessed as half life incubated for 5 to 30 mins by HPLC-MS/MS analysis; format: ADME, Microsome; conditions: time 5-30 min; for t1/2: microsomes
[5] = Metabolic stability in human liver assessed as intrinsic clearance incubated for 5 to 30 mins by HPLC-MS/MS analysis; format: ADME, tissue-based; conditions: liver (preparation not stated), time 5-30 min, read-out: CLH
Mus musculus [6] = assay: Antiinflammatory activity against imiquimod-induced Balb/c mouse skin inflammation model assessed as inhibition of IL-6 level at 20 mg/kg, po measured for 13 days; format: functional; set-up: scale not given: the % may be the effect or the level left; conditions: time 13 day
Mus musculus [7] = assay: Antiinflammatory activity against imiquimod-induced Balb/c mouse skin inflammation model assessed as inhibition of IL-17A level at 20 mg/kg, po measured for 13 days; format: functional; set-up: scale not given: the % may be the effect or the level left; conditions: time 13 day
Mus musculus [8] = assay: Antiinflammatory activity against imiquimod-induced Balb/c mouse skin inflammation model assessed as reduction in severity index score at 20 mg/kg, po BID for 13 days; format: functional; set-up: scale not given: the % may be the effect or the level left; conditions: time 13 day
[9] = Metabolic stability in human liver microsomes assessed as parent compound remaining measured at 60 mins by HPLC-MS/MS analysis; format: ADME, Microsome; conditions: 1 h
[10] = Solubility of compound in aqueous buffer at pH 7.4; format: physicochemical

| logD [1] | SMILES | further results |
| --- | --- | --- |
| 4.12 | CCc1ccc(N(CC(C)C)S(=O)(=O)c2ccc3c(c2)C(O)C[C@@H](C2CCOCC2)O3)cc1 (some centres undefined) |  |
| 3.51 | CC(C)CN(c1ccc(N(C)C)cc1)S(=O)(=O)c1ccc2c(c1)C(O)CC(C1CCOCC1)O2 (centres undefined) |  |
| 5.71 | CCc1ccc(N(CC(C)C)S(=O)(=O)c2ccc3c(c2)C(C)CC(C2CCOCC2)O3)cc1 (centres undefined) |  |
| 1.04 | CCc1ccc(N(CC(C)C)S(=O)(=O)c2ccc3c(c2)C(O)CC(C2CCNCC2)O3)cc1 (centres undefined) |  |
| 3.39 | CC(C)CN(c1cccc(F)c1)S(=O)(=O)c1ccc2c(c1)C(O)CC(C1CCOCC1)O2 (centres undefined) |  |
| 4.12 | CCc1ccc(N(CC(C)C)S(=O)(=O)c2ccc3c(c2)C(O)CC(C2CCOCC2)O3)cc1 (centres undefined) | half-life ([4]; liver microsomes): 222 min; CLint scaled [5]: 330 mL/min/kg |
| 5.52 | CCc1ccc(N(CC(C)C)S(=O)(=O)c2ccc3c(c2)C=CC(C2CCOCC2)O3)cc1 (centres undefined) |  |
| 3.22 | CCc1ccc(N(CC(C)C)S(=O)(=O)c2ccc3c(c2)C(O)CC(C2CCN(S(C)(=O)=O)CC2)O3)cc1 (centres undefined) |  |
| 5.38 | CCc1ccc(N(CC(C)C)S(=O)(=O)c2ccc3c(c2)CCC(C2CCOCC2)O3)cc1 (centres undefined) |  |
| 3.39 | CC(C)CN(c1ccc(F)cc1)S(=O)(=O)c1ccc2c(c1)C(O)CC(C1CCOCC1)O2 (centres undefined) |  |
| 5.04 | CCc1ccc(N(CC(C)C)S(=O)(=O)c2ccc3c(c2)C(O)CC(C(C)C2CCOCC2)O3)cc1 (centres undefined) |  |
| 4.19 | CCc1ccc(N(CC(C)C)S(=O)(=O)c2ccc3c(c2)C(C)(O)CC(C2CCOCC2)O3)cc1 (centres undefined) |  |
| 4.12 | CCc1ccc(N(CC(C)C)S(=O)(=O)c2ccc3c(c2)C(O)C[C@H](C2CCOCC2)O3)cc1 (some centres undefined) |  |
| 6.28 | CCc1ccc(N(CC(C)C)S(=O)(=O)c2ccc3c(c2)C(OC2CCCCC2)CC(C2CCOCC2)O3)cc1 (centres undefined) |  |
| 3.88 | CCc1ccc(N(CC(F)(F)F)S(=O)(=O)c2ccc3c(c2)C(O)CC(C2CCOCC2)O3)cc1 (centres undefined) |  |
| 3.07 | CC(C)CN(c1ccc(C#N)cc1)S(=O)(=O)c1ccc2c(c1)C(O)CC(C1CCOCC1)O2 (centres undefined) | t1/2 [4]: 0.8 min; Stability [9]: 0.3%; CLint scaled [5]: 1520 mL/min/kg |
| 4.69 | CCc1ccc(N(CC(C)C)S(=O)(=O)c2ccc3c(c2)C(OC)CC(C2CCOCC2)O3)cc1 (centres undefined) |  |
| 3.08 | CCc1ccc(N(CC(C)C)S(=O)(=O)c2ccc3c(c2)C(N)CC(C2CCOCC2)O3)cc1 (centres undefined) |  |
| 2.67 | CCc1ccc(N(CC(C)C)S(=O)(=O)c2ccc3c(c2)C(O)CC(C2CCN(C)CC2)O3)cc1 (centres undefined) |  |
| 4.01 | CCc1ccc(N(CC2CCC2)S(=O)(=O)c2ccc3c(c2)C(O)CC(C2CCOCC2)O3)cc1 (centres undefined) |  |
| 4.44 | CCc1ccc(N(CC(C)C)S(=O)(=O)c2ccc3c(c2)C(O)CC(CC2CCOCC2)O3)cc1 (centres undefined) |  |

More lines, now with the values behind:

| SMILES | logD [1] | further results |
| --- | --- | --- |
| O=S(=O)(c1ccc2c(c1)C(O)CC(C1CCOCC1)O2)N1CCC(c2ccccc2)CC1 (centres undefined) | 2.63 | pIC50 [2]: < 5.00; pIC50 [3]: < 5.00 |
| CC(C)CN(c1ccccc1C(F)(F)F)S(=O)(=O)c1ccc2c(c1)C(O)CC(C1CCOCC1)O2 (centres undefined) | 4.14 |  |
| CCc1ccc(N(CC(C)C)S(=O)(=O)c2ccc(OCC3CCOCC3)c(CN)c2)cc1 | 3.25 |  |
| CCc1ccc(N(C2COC2)S(=O)(=O)c2ccc3c(c2)C(O)CC(C2CCOCC2)O3)cc1 (centres undefined) | 2.63 |  |
| CCc1ccc(N(CC(C)C)S(=O)(=O)c2ccc(OCC3CCOCC3)c3c2CCC3O)cc1 (centres undefined) | 4.55 |  |
| CCc1ccc(N(CC(C)C)S(=O)(=O)c2ccc3c(c2)C(O)CC(C2CCN(C(=O)C4CCCC4)CC2)O3)cc1 (centres undefined) | 5.04 |  |
| CCc1ccc(N(CC(C)C)S(=O)(=O)c2ccc(OCC3CCOCC3)c(CO)c2)cc1 [GSK2981278] | 4.1 | Activity (Mus musculus [6]): 59.4%; t1/2 [4]: 0.8 min; Activity (Mus musculus [7]): 82.2%; Activity (Mus musculus [8]): 61.5%; Stability [9]: 0.2%; CLint scaled [5]: 1610 mL/min/kg; solubility [10]: 2.12 µg/mL (≈ 4.59 µM) |
| Cc1cc(C(O)(C(F)(F)F)C(F)(F)F)ccc1N(CC(C)C)S(=O)(=O)c1ccc2c(c1)C(O)CC(C1CCOCC1)O2 (centres undefined) | 4.37 |  |
| CCc1ccc(NS(=O)(=O)c2ccc3c(c2)C(O)CC(C2CCOCC2)O3)cc1 (centres undefined) | 2.59 |  |
| Cc1ccc(N(C2CCC2)S(=O)(=O)c2ccc3c(c2)C(O)CC(C2CCOCC2)O3)c(C)c1 (centres undefined) | 3.77 |  |
| CC(C)CN(c1ccccc1F)S(=O)(=O)c1ccc2c(c1)C(O)CC(C1CCOCC1)O2 (centres undefined) | 3.39 |  |
| Cc1ccc(N(CC(C)C)S(=O)(=O)c2ccc3c(c2)C(O)CC(C2CCOCC2)O3)c(C)c1 (centres undefined) | 4.19 |  |
| CCc1ccc(N(CC(C)C)S(=O)(=O)c2ccc3c(c2)CCC3OC2CCOCC2)cc1 (centres undefined) | 4.96 |  |
| CCc1ccc(N(Cc2ccccc2)S(=O)(=O)c2ccc3c(c2)C(O)CC(C2CCOCC2)O3)cc1 (centres undefined) | 4.68 |  |
| CC(C)CN(Cc1ccccc1C(F)(F)F)S(=O)(=O)c1ccc2c(c1)C(O)CC(C1CCOCC1)O2 (centres undefined) | 4.23 |  |
| O=S(=O)(c1ccc2c(c1)C(O)CC(C1CCOCC1)O2)N1CCCC1c1ccccc1C(F)(F)F (centres undefined) | 3.41 | t1/2 [4]: 7.6 min; Stability [9]: 5.2%; CLint scaled [5]: 172 mL/min/kg |
| CC(C)CN(c1ccc(F)cc1F)S(=O)(=O)c1ccc2c(c1)C(O)CC(C1CCOCC1)O2 (centres undefined) | 3.53 |  |
| CC(C)CN(C1CCc2ccc(F)cc21)S(=O)(=O)c1ccc2c(c1)C(O)CC(C1CCOCC1)O2 (centres undefined) | 3.94 |  |
| CCc1ccc(N(CC(C)C)S(=O)(=O)c2ccc(OCC3CCOCC3)c3c2CCCC3O)cc1 (centres undefined) | 4.95 |  |
| O=S(=O)(Nc1ccccc1C(F)(F)F)c1ccc2c(c1)C(O)CC(C1CCOCC1)O2 (centres undefined) | 2.41 | pIC50 [2]: < 5.00; pIC50 [3]: < 5.00 |
| CCc1ccc2c(c1)CC(C)CN2S(=O)(=O)c1ccc2c(c1)C(O)CC(C1CCOCC1)O2 (centres undefined) | 3.68 |  |
| CC(C)CN(c1cc2ccccc2s1)S(=O)(=O)c1ccc2c(c1)C(O)CC(C1CCOCC1)O2 (centres undefined) | 3.92 | t1/2 [4]: 25.2 min; Stability [9]: 28.5%; CLint scaled [5]: 53.7 mL/min/kg |
| CCc1ccc(N(CC(C)C)S(=O)(=O)c2ccc3nc(C4CCOCC4)cc(O)c3c2)cc1 | 4.97 |  |
| CCS(=O)(=O)c1ccc(CN(CC(C)C)S(=O)(=O)c2ccc3c(c2)C(O)CC(C2CCOCC2)O3)nc1 (centres undefined) | 1.42 | pIC50 [2]: < 5.00; pIC50 [3]: < 5.00 |
